Results as given in article PMC5779714, “Metallochaperone UreG serves as a new target for design of urease inhibitor: A novel strategy for development of antimicrobials” (PLoS Biology, 2018).
“And” between values parts separate entries of the source, which are not always exact repeats. Identical values can stand only once.

How the values were obtained:
[1] = target: T1, UreG (Helicobacter pylori, UniProt Q09066); test: biochemical; format: biochemical, H. pylori
Experimental: A Malachite Green Phosphate Assay Kit (Abcam) was utilized to quantify the hydrolysis of GTP by UreG under various conditions. […] GTPase activity of UreG was triggered through the addition of 10 mM KHCO3, after which the reaction was incubated at 37°C for 30 min; then, the free phosphate from hydrolysis of GTP was determined. […] To eliminate the potential effect of small compounds on malachite green assay, the assay included a subtraction of the absorbance of reaction with the same amounts of compounds but without UreG enzyme for each reading.

[2] = target: H. pylori urease (Helicobacter pylori, UniProt P14916+P69996); test: cell-based; format: cell-based; details: 20 μM compound in cultured medium; read-out: inhibition of urease activity in H. pylori cells
Sequence of H. pylori urease (P14916 whole entry, looked up): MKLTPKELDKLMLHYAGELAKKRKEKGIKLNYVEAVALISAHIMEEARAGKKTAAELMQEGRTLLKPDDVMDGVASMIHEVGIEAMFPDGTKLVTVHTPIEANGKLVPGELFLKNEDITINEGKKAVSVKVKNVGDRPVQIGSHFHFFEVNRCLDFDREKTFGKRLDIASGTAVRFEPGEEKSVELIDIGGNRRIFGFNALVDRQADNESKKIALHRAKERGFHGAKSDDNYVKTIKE
Sequence of H. pylori urease (P69996 whole entry, looked up): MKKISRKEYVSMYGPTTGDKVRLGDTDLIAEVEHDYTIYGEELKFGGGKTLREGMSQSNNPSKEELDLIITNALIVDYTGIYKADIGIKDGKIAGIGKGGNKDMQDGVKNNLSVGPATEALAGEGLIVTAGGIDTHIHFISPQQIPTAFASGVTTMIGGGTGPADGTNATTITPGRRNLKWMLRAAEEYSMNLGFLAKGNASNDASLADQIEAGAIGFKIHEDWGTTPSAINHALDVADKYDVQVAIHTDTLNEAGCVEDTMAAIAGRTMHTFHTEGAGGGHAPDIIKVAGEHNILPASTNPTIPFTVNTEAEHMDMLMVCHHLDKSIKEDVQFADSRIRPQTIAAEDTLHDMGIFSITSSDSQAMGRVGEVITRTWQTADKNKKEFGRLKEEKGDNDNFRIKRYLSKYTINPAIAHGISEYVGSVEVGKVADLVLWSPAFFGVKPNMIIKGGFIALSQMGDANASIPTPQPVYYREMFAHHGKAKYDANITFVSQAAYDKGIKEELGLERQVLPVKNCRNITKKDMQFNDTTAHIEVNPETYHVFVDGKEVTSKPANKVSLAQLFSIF

[3] = target: T1, UreG; test: Fluorescence-quenching titration of UreG (Kd); format: binding, H. pylori
Experimental: (§1) Using the relation between the emission intensity at 310 nm and molecule-UreG–bound species, as well as one site-binding model, the Kd values were calculated by a logistic regression model referring to a previous report. […] All fluorescence readings were corrected for the dilution effect.

[4] = target: UreGΔNKXD (Helicobacter pylori, UniProt Q09066, D148A/K146A/N145A); test: Fluorescence-quenching titration of mutant UreGΔNKXD; format: binding, H. pylori
Sequence of UreGΔNKXD (Q09066 whole entry N145A/K146A/D148A): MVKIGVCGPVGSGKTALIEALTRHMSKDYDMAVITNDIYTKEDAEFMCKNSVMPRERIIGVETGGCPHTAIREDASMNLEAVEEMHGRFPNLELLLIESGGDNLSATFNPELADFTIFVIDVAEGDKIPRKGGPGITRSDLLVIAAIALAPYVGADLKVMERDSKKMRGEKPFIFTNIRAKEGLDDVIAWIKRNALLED
Experimental: To further confirm the interface between UreG and small molecules generated from computational models, we then constructed an UreG mutant (UreGΔNKXD) by replacing selected residues (N145, K146, D148) with Ala to disrupt G4 motif, which abolished GTP binding of UreG (S17 Fig).
as §1

[5] = target: T1, UreG; test: Nickel binding of UreG (UV absorption at 337 nm) in presence of compounds; design: species or system H. pylori
Experimental: We further investigated whether binding of cmpd4 or cmpd8 to the guanine nucleotide binding pocket perturbed the Ni(II) coordination to the protein. Considering that coordination of Ni(II) to UreG results in a (Cys)→Ni(II) LMCT band centered at about 337 nm, we monitored the UV absorption of UreG samples (5 μM) at 337 nm upon titration of nickel with or without the supplement of cmpd4 or cmpd8. As shown in S19 Fig, cmpd4 at a ratio of [cmpd4]/[UreG] of 5 and 10 reduced the percentages of Ni(II)-bound UreG to ca. 75% and 30%, respectively, and a similar phenomenon was also observed for cmpd8 (S19 Fig), indicative of the disruption of nickel binding property of UreG through targeting nucleotide binding site.
Supplementary file pbio.2003887.s021.png: S19 Fig Effect of cmpd4 and cmpd8 on nickel binding property of UreG. UreG (5 μM) in HEPES buffer (5 μM GTP, 1 mM MgSO4) was titrated with NiSO4 in the presence of cmpd4 or cmpd8 at various concentrations. Titration of nickel ion into UreG samples led to the increasing of absorption at 337 nm, the highest of which was set as 100% for the percentage of Ni-bound UreG. The supplement of cmpd4 and cmpd8 reduced the percentage of Ni-bound UreG. […] (PNG) Click here for additional data file.

[6] = system: AGS cells exposed to H. pylori; test: Cell infection model: AGS cells exposed to H. pylori pre-cultured with inhibitors; format: cell-based, human
[7] = system: AGS cells with H. pylori infection; test: AGS cells with H. pylori infection, inhibitors administrated to the AGS cells (S20 Fig); format: cell-based, human; details: 10 μM administrated to AGS cells with H. pylori infection
Text: As expected, low viability of AGS with the supplement of cmpd4 and cmpd8 was observed due to the toxicity of small compounds to mammalian cells. […] (PNG) Click here for additional data file.

T1 sequence (Q09066 whole entry): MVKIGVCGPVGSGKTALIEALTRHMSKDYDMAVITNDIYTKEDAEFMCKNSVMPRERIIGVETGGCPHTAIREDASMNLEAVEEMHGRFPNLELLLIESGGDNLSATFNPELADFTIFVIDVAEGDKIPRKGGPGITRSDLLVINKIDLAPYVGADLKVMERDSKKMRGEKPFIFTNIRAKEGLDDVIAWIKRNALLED

Structure (SMILES): O=C(Cn1c2ccccc2c(=O)c2ccccc21)N/N=C/c1cc([N+](=O)[O-])ccc1N1CCCCCC1 [cmpd8]
- IC50 [1]: 13.2 ± 7.6 µM
- Normalized GTPase activity(%) ([1]; log[μM] 0): 100.3%
- Normalized GTPase activity(%) ([1]; log[μM] 0.60206): 93.8%
- Normalized GTPase activity(%) ([1]; log[μM] 0.90309): 81.8%
- Normalized GTPase activity(%) ([1]; log[μM] 1.20412): 41.6%
- Normalized GTPase activity(%) ([1]; log[μM] 1.50515): 32.9%
- Normalized GTPase activity(%) ([1]; log[μM] 1.79588): 13.8%
- Normalized GTPase activity(%) ([1]; log[μM] 2.09691): 2.1%
- Normalized GTPase activity(%) ([1]; log[μM] 2.39794): 16.7%
- inhibition at 20 µM ([1]; read-out: inhibition of the GTPase activity of UreG): 37 to 72%
- inhibition at 20 µM [2]: ~90%
- Kd [3]: 7.5 ± 3.6 µM
- fluorescence intensity (a.u.) ([3]; log(ligand[μM]) 0): 2868.33 a.u.
- fluorescence intensity (a.u.) ([3]; log(ligand[μM]) 0.30103): 2606 a.u.
- fluorescence intensity (a.u.) ([3]; log(ligand[μM]) 0.60206): 2272 a.u.
- fluorescence intensity (a.u.) ([3]; log(ligand[μM]) 0.90309): 1853.67 a.u.
- fluorescence intensity (a.u.) ([3]; log(ligand[μM]) 1.20412): 1359.33 a.u.
- fluorescence intensity (a.u.) ([3]; log(ligand[μM]) 1.50515): 767.233 a.u.
- fluorescence intensity (a.u.) ([3]; log(ligand[μM]) 1.68124): 595.5 a.u.
- fluorescence intensity (a.u.) ([3]; log(ligand[μM]) 1.80618): 360.267 a.u.
- fluorescence intensity (a.u.) ([3]; log(ligand[μM]) -0.30103): 3140.33 a.u.
- fluorescence intensity (a.u.) ([3]; log(ligand[μM]) -0.60206): 3427 a.u.
- fluorescence intensity (a.u.) ([3]; log(ligand[μM]) -1.30103): 3670 a.u.
- Kd [4]: 33.4 µM
- fluorescence intensity (a.u.) ([4]; log(ligand[μM]) 0): 2422.67 a.u.
- fluorescence intensity (a.u.) ([4]; log(ligand[μM]) 0.30103): 2357.67 a.u.
- fluorescence intensity (a.u.) ([4]; log(ligand[μM]) 0.60206): 2253.67 a.u.
- fluorescence intensity (a.u.) ([4]; log(ligand[μM]) 0.90309): 2017.33 a.u.
- fluorescence intensity (a.u.) ([4]; log(ligand[μM]) 1.20412): 1677.67 a.u.
- fluorescence intensity (a.u.) ([4]; log(ligand[μM]) 1.50515): 1189.33 a.u.
- fluorescence intensity (a.u.) ([4]; log(ligand[μM]) 1.80618): 685.167 a.u.
- fluorescence intensity (a.u.) ([4]; log(ligand[μM]) 2.10721): 316.133 a.u.
- fluorescence intensity (a.u.) ([4]; log(ligand[μM]) -0.30103): 2519 a.u.
- fluorescence intensity (a.u.) ([4]; log(ligand[μM]) -1.30103): 2677 a.u.
- absorption at 337 nm ([5]; [compound]/[UreG] 5, Ni 0 μM): 2.14E-04
- absorption at 337 nm ([5]; [compound]/[UreG] 5, Ni 1 μM): 0.00481
- absorption at 337 nm ([5]; [compound]/[UreG] 5, Ni 2 μM): 0.0064
- absorption at 337 nm ([5]; [compound]/[UreG] 5, Ni 3 μM): 0.00838
- absorption at 337 nm ([5]; [compound]/[UreG] 5, Ni 4 μM): 0.01641
- absorption at 337 nm ([5]; [compound]/[UreG] 5, Ni 5 μM): 0.0186
- absorption at 337 nm ([5]; [compound]/[UreG] 5, Ni 6 μM): 0.01908
- absorption at 337 nm ([5]; [compound]/[UreG] 5, Ni 7 μM): 0.02094
- absorption at 337 nm ([5]; [compound]/[UreG] 5, Ni 8 μM): 0.0213
- absorption at 337 nm ([5]; [compound]/[UreG] 10, Ni 0 μM): 0.00131
- absorption at 337 nm ([5]; [compound]/[UreG] 10, Ni 1 μM): 0.00222
- absorption at 337 nm ([5]; [compound]/[UreG] 10, Ni 2 μM): 0.00217
- absorption at 337 nm ([5]; [compound]/[UreG] 10, Ni 3 μM): 0.00973
- absorption at 337 nm ([5]; [compound]/[UreG] 10, Ni 4 μM): 0.01047
- absorption at 337 nm ([5]; [compound]/[UreG] 10, Ni 5 μM): 0.01403
- absorption at 337 nm ([5]; [compound]/[UreG] 10, Ni 6 μM): 0.0146
- absorption at 337 nm ([5]; [compound]/[UreG] 10, Ni 7 μM): 0.01179
- absorption at 337 nm ([5]; [compound]/[UreG] 10, Ni 8 μM): 0.01166
- Normalized cell survival (%) [6]: 81.1% ± 11.3% and 81.0811%
- Ammonia in medium (mM) ([6]; H. pylori pre-cultured with 10 μM inhibitor, urea 10 mM, 24 h, Hp alone ca. 2.5 mM): around 1.1 mM
- Ammonia in medium ([6]; H. pylori pre-cultured with 10 μM inhibitor, urea 10 mM, 24 h, Hp alone ca. 2.5 mM, listed as cmp8): 1.209 mM
- Ammonia in medium [7]: 0.5294 mM
- Normalized cell survival (%) [7]: low viability
- Normalized cell survival (%) ([7]; listed as cmp8): 23.4234%
